Laboratory results reported in patent US20260315475A1 (priority 2023, published 2026).
Where “and” joins values, the source holds several entries; their conditions need not be identical. Equal values may be shown once. Read-outs that look alike come from different tables or passages of the source.

Experiments:
BCRP = conditions: role: inhibitor; clinically relevant concentrations, in vitro; cited from earlier work
rat bone marrow = conditions: in vivo; cited from earlier work
CYP2D6 = conditions: role: substrate; in vitro; cited from earlier work
[1] = Embryo-fetal developmental study in rabbits; format: in vivo; conditions: rabbit
CYP1A2 = conditions: role: inhibitor; in vitro; cited from earlier work
P-gp = conditions: role: inhibitor; clinically relevant concentrations, in vitro; cited from earlier work
[2] = Phase I single-dose open-label pharmacokinetic study in participants with normal hepatic function and varying degrees of hepatic impairment; format: in vivo, human; conditions: for Vd/F / AUC(0-inf) / AUC(0-t) / AUC(0-t) at 24 h / CL/F / Cmax / Tmax / half-life: human, po, 200 mg; for Vd/F / AUC(0-inf) / AUC(0-t) / AUC(0-t) at 24 h / CL/F / Cmax / Tmax / half-life / t1/2 / tlast: plasma; for Vd/F: read-out: Vz/F; for Tmax / tlast: median
Text: The primary objective was to assess the pharmacokinetic (PK) of belumosudil following a single oral dose of belumosudil in participants with mild, moderate, or severe hepatic impairment compared to healthy participants with normal hepatic function.
The secondary objectives were: to evaluate the safety and tolerability of a single oral dose of belumosudil in participants with mild, moderate, or severe hepatic impairment, and in healthy participants with normal hepatic function; to assess the PK of the belumosudil metabolites following a single oral dose of belumosudil in participants with mild, moderate, or severe hepatic impairment compared to healthy participants with normal hepatic function.
Approximately 38 participants were to be enrolled into the following groups based on their hepatic function, as determined according to the Child-Pugh system. • Group 1 (n=approximately 16): matched healthy participants with normal hepatic function • Group 2 (n=8): participants with mild hepatic impairment (Child-Pugh Class A [score of 5 or 6]) • Group 3 (n=8): participants with moderate hepatic impairment (Child-Pugh Class B [score of 7 to 9]) • Group 4 (n=6): participants with severe hepatic impairment (Child-Pugh Class C [score of 10 to 14]).
Healthy participants with normal hepatic function (Group 1) were demographically matched by age (±10 years), sex, and body mass index (BMI; +20%) to participants with hepatic impairment (Groups 2, 3, and 4). Participants with normal hepatic function could be matched to multiple participants across the 3 hepatic impairment groups (mild, moderate, and severe), but could not be matched to more than 1 participant within the same impairment group.
Pharmacokinetic blood samples were obtained from predose until 48 hours postdose (Day 3).
Summary tables, mean (+standard deviation [SD]) figures, overlaying individual figures, and individual figures by hepatic function and time postdose were provided for plasma PK concentrations. Summary tables by hepatic function were provided for all PK parameters, with the exception of terminal phase regression-related diagnostic parameters (λz, λz upper, λ z lower, λz number of points, R2-adj, and % AUCextrap), which were listed only.
All other PK parameters were regarded as secondary and were not participant to inferential statistical analysis.

[3] = Changes in belumosudil exposure in subjects with hepatic impairment compared to subjects with normal hepatic function; format: in vivo, human; conditions: single 200 mg
[4] = single oral 200 mg belumosudil, fed, mild hepatic impairment, geometric mean (CV %)
[5] = single oral 200 mg belumosudil, fed, moderate hepatic impairment, geometric mean (CV %)
[6] = single oral 200 mg belumosudil, fed, normal hepatic function, geometric mean (CV %)
[7] = single oral 200 mg belumosudil, fed, severe hepatic impairment, geometric mean (CV %)
[8] = single oral 200 mg belumosudil, fed, mild hepatic impairment
[9] = single oral 200 mg belumosudil, fed, moderate hepatic impairment
[10] = single oral 200 mg belumosudil, fed, normal hepatic function
[11] = single oral 200 mg belumosudil, fed, severe hepatic impairment
[12] = moderate (Child-Pugh B) vs normal
[13] = severe (Child-Pugh C) vs normal

For CC(C)NC(=O)COc1cccc(-c2nc(Nc3ccc4[nH]ncc4c3)c3ccccc3n2)c1 [belumosudil, 2-{3-[4-(1H-indazol-5-ylamino)-2-quinazolinyl]phenoxy}-N-(propan-2-yl) acetamide], the BCRP inhibition (BCRP) is given as “inhibits”, the “genotoxicity, micronucleus” value (rat bone marrow) is given as “not genotoxic” and the “metabolism by CYP2D6” value (CYP2D6) is given as “to a lesser extent”. The “maternal exposure (AUC) multiple of human exposure with adverse developmental outcomes” value [1] was at least 0.07 times the human exposure, the CYP1A2 inhibition (CYP1A2) was “inhibitor” and the P-gp inhibition (P-gp) was “inhibits”. The Vd/F ([2]; geometric means across participants with hepatic impairment (mild, moderate, severe)) was 76.6 to 105 L, the Vd/F [2, 4] was 105 L and the Vd/F [2, 5] was 76.6 L. It also gave a Vd/F [2, 6] of 193 L, a Vd/F [2, 7] of 95.7 L and an AUC(0-inf) [2, 4] of 16 µg·h/mL. For the same molecule, the AUC(0-t) [2, 4] was 15.8 µg·h/mL, the AUC(0-t) at 24 h [2, 4] was 15.4 µg·h/mL and the CL/F [2, 4] was 208 mL/min. It also gave a Cmax [2, 4] of 2.59 µg/mL, a Tmax [2, 8] of 2.98 h and an AUC(0-inf) [2, 5] of 23.7 µg·h/mL. It also gave an AUC(0-t) [2, 5] of 23.1 µg·h/mL, an AUC(0-t) at 24 h [2, 5] of 21.3 µg·h/mL and a CL/F [2, 5] of 140 mL/min. The Cmax [2, 5] was 2.49 µg/mL, the half-life [2, 5] was 6.3 h and the Tmax [2, 9] was 4 h. It also gave an AUC(0-inf) [2, 6] of 12.8 µg·h/mL, an AUC(0-t) [2, 6] of 12 µg·h/mL and an AUC(0-t) at 24 h [2, 6] of 11.3 µg·h/mL. The CL/F [2, 6] was 260 mL/min, the Cmax [2, 6] was 2.19 µg/mL and the half-life [2, 6] was 8.58 h. It also gave a Tmax [2, 10] of 3.5 h, an AUC(0-inf) [2, 7] of 30.1 µg·h/mL and an AUC(0-t) [2, 7] of 29.6 µg·h/mL. For the same molecule, the AUC(0-t) at 24 h [2, 7] was 23.4 µg·h/mL, the CL/F [2, 7] was 110 mL/min and the Cmax [2, 7] was 2.17 µg/mL. For the same molecule, the half-life [2, 7] was 10 h, the Tmax [2, 11] was 5.02 h and the “concentration profile and exposure” value ([2]; one participant with moderate impairment) was “greatly reduced concentration profile and exposure”. The t1/2 [2, 4] was 5.86 h and 5.86 (45.2) h, the tlast [2, 8] was 36.0 h and the t1/2 [2, 5] was 6.30 (44.4) [7] h. The tlast [2, 9] was 48.0 h, the t1/2 [2, 6] was 8.58 (48.8) [13] h and the tlast [2, 10] was 48.0 h. The t1/2 [2, 7] was 10.00 (40.7) h, the tlast [2, 11] was 48.0 h and the “concentration profiles and exposures” value ([2]; two participants with severe impairment) was “greatly reduced concentration profiles and exposures”. For the same molecule, the “AUC change, free concentrations: decrease” value ([3]; mild (Child-Pugh A) vs normal) was 19%, the “AUC change, total (free + bound): increase” value ([3]; mild (Child-Pugh A) vs normal) was 1.4-fold and the “Cmax change, free concentrations: decrease” value ([3]; mild (Child-Pugh A) vs normal) was 14%. For the same molecule, the “Cmax change, total (free + bound): increase” value ([3]; mild (Child-Pugh A) vs normal) was 1.2-fold, the “AUC change, free concentrations: increase” value [3, 12] was 1.4-fold and the “AUC change, total (free + bound): increase” value [3, 12] was 1.5-fold. For the same molecule, the “Cmax change, free concentrations: decrease” value [3, 12] was 12%, the “Cmax change, total (free + bound): decrease” value [3, 12] was 6% and the “AUC change, free concentrations: increase” value [3, 13] was 16-fold. The “AUC change, total (free + bound): increase” value [3, 13] was 4.2-fold, the “Cmax change, free concentrations: increase” value [3, 13] was 5.4-fold and the “Cmax change, total (free + bound): increase” value [3, 13] was 1.3-fold.
